Data taken from patent US12133523B2, “Anti-freezing composition comprising self-assembly compound” (Korea University Research and Business Foundation, priority 2019, dated 2024).
“Also recorded” adds a separate entry of the source. Residues, ends and D or L forms follow the SMILES beside them. *: point of attachment. Fmoc = O=C(OCC1c2ccccc2-c2ccccc21)*

Tests used:
[1] = Ice recrystallization inhibition (IRI) splat assay, MLGS from DFOM images; conditions: for IRI effect: ice recrystallized 30 minutes at -6 °C
Protocol: In order to more clearly confirm the effect of inhibiting ice crystal growth, ice recrystallization inhibition (IRI) characteristics were analyzed. Analysis of ice recrystallization was performed by reference Mitchell, D. E., Clarkson, G., Fox, D. J., Vipond, R. A., Scott, P., & Gibson, M. I. (2017). Antifreeze Protein Mimetic Metallohelices with Potent Ice Recrystallization Inhibition Activity. Journal of the American Chemical Society, 139(29), 9835-9838 and Budke, C., Heggemann, C., Koch, M., Sewald, N., & Koop, T. (2009). Ice Recrystallization Kinetics in the Presence of Synthetic Antifreeze Glycoprotein Analogues Using the Framework of LSW Theory. The Journal of Physical Chemistry B, 113(9), 2865-2873. More specifically, a 10 μL sample was dropped from a height of 1.5 m onto a surface of a cover glass precooled to −60° C. so as to form a thin film of ice. […] During recrystallization of ice, dark-field optical microscopy (DFOM) images were taken, and ten of the largest ice crystal domains were chosen and a mean value thereof was obtained to evaluate the IRI activity. A mean largest grain size (MLGS) analysis was repeated three times.

[2] = tested on: mouse embryonic stem cells (mESCs); assay: mESC cell viability by CCK-8 assay and crystal violet dye; type: cell-based; conditions: for toxicity to mESC: 5 to 20 uM, CCK-8 and crystal violet dye; for cell viability with respect to mESC: CCK-8
Protocol: In a 60 mm cell culture dish coated with 0.1% gelatin (Sigma), mouse ES cells were cultured in a medium DMEM (Hyclone), to which 2 mM L-glutamine (Mediatech Inc.), 1% penicillin/streptomycin (Mediatech Inc.), 15% heat-inactivated fetal bovine serum (Hyclone), 20 mM HEPES-pH 7.3 (Cellgro), 0.1 mM MEM non-essential amino acid (Cellgro), 0.1 mM 2-mercaptoethanol (Sigma) and 1000 U/mL LIF (Millipore) are added, in order to prevent differentiation.
Mouse ES cells were seeded by 8×10^4 cells per well in a 96-well plate containing the above various cryopreservation solutions. After 9 hours, CCK-8 reagent was added and fluorescence intensity was measured using an ELISA Reader (TECAN).
[…] Cells were washed with 500 μL of PBS and 500 μL of 4% PFA was added thereto for 15 minutes. The fixed cells were washed twice with 500 μL of PBS and 0.5% crystal violet solution was added thereto for 30 minutes. The stained cells were washed with tap water.

[3] = Freezing control on food (beef frozen at -20 °C, thawed; SEM, optical microscope, TEM)
Protocol: In order to determine whether Fmoc-FFT can be used as a cryoprotectant for foods, Fmoc-FFT was added to beef (FIG. 22a), then frozen at −20° C. for one day, thawed at room temperature, and then SEM images were observed (FIGS. 22b and d).
After freezing and thawing, Fmoc-FFT was added to water in order to confirm the beef tissue, frozen at −20° C., then the process of recrystallization of ice was observed under an optical microscope.
Further, in order to confirm the tissue change in more detail, the thawed tissue was rapidly frozen in liquid nitrogen, then cut while maintaining −20° C., and the internal tissue was checked. […] It was observed that, when the Fmoc-FFT was not added, the size of tissue pore was 22±8.6 μm, while it was 5±2.3 μm when adding the same.

[4] = tested on: mouse embryonic stem cells (mESCs); assay: Cryopreservation activity for mESC (freeze/thaw survival, differentiation); type: cell-based; conditions: sample solution 10% (v/v), FBS 40%, media 50%; -80 °C then liquid nitrogen
Protocol: 250 μL of trypsinized mouse ES cells, 200 μL of FBS and 50 μL of cryopreservation solution (0.005 μM, 0.01 μM, 0.05 μM, and 0.1 μM) were frozen in a rapid freezer for 2 days, and then stored in an LN2 tank. Thawing was performed in a 37° C. constant temperature water bath. The cell frozen stock mixture was inoculated in 4.5 mL medium of 15 mL tube, and then centrifuged at 1000 rpm for 5 minutes. Cell pellets were added with 1 mL medium and inoculated in a 6-well plate.
A cell storage solution was prepared with a sample solution 10% (v/v), FBS 40% (v/v), and media 50% (v/v) according to the present invention, and frozen at −80° C. using a rapid freezer, then the cells were stored for 2 days, and further stored in a liquid nitrogen tank for 2 days or more. Then, the cells were thawed and used in the experiment. In addition, the cells were cultured by treatment with a leukemia inhibitory factor (LIF) to confirm the differentiation ability of stem cells. All the controls were cultured and differentiated under the same conditions, except that deionized water was added instead of the sample according to the present invention.

[5] = Gold nanoparticle (MPA-AuNP) colorimetric freeze/thaw assay for TH and IRI activity; conditions: for aggregation of gold particles after freezing/thawing (absorption peak shift 525 nm to 650 nm): 50 μL of 0.5 mM sample in 350 μL of 300 μM MPA-AuNP, -65 °C 23 min
Protocol: Thermal hysteresis (TH) as anti-freezing activity was measured in accordance with the method described in Park, J.-I., Lee, J. H., Gwak, Y., Kim, H. J., Jin, E., & Kim, Y.-P. (2013). Frozen assembly of gold nanoparticles for rapid analysis of antifreeze protein activity. Biosensors and Bioelectronics, 41, 752-757, and ice recrystallization inhibition (IRI) activity was measured based on Mitchell, D. E., Congdon, T., Rodger, A., & Gibson, M. I. (2015). Gold Nanoparticle Aggregation as a Probe of Antifreeze (Glyco) Protein-Inspired Ice Recrystallization Inhibition and Identification of New IRI Active Macromolecules. Scientific Reports, 5(1). More specifically, when dispersing AFP in a solution in which gold nanoparticles are dispersed, and freezing the solution then thawing again, if the AFP has good conjugating force with an ice crystal surface, the dispersibility of gold nanoparticles is good to maintain an original color of the solution, whereas if it has weak conjugating force, AFP is precipitated, and when ice crystals are rapidly formed, the solution is subjected to color change.
Gold nanoparticles (Cit-AuNP) stabilized with citric acid were synthesized to prepare mercaptopropionic acid (MPA)-AuNP. 20 mL of a storage solution containing 1 mM HAuCl4·3H2O was added to 50 mL of deionized water (DI water). After the solution was stirred and heated to a boiling point, 30 mM sodium citric acid in 2 mL of deionized water was further added to the solution and heated for 20 minutes. The color of the solution changed from bright yellow to burgundy. […] An average size of MPA-capped AuNP was measured to be about 16.7 nm.
On a microwell plate, 50 μL of a solution containing 0.5 mM sample was added to 350 μL of 300 μM MPA-AuNP solution, respectively. […] To quantitatively confirm the color change before and after freezing, absorption spectra of each mixture were measured with a UH5300 spectrometer before and after freezing. The spectra were measured from 300 nm to 900 nm at a scan speed of 400 nm/min, and aggregation properties (E525/E650) of each mixture were compared. […]

[6] = Critical micellar concentration from emission intensity versus concentration; type: physicochemical
sperms = assay: Sperm cryopreservation followed by in vitro fertilization and embryo culture; type: cell-based, C57BL/6J mice; conditions: sperms frozen in 3% skim milk containing 10 to 20 μM
Protocol: To cryopreserve sperms, a modified 18% raffinose pentahydrate/3% skim milk (Difco, Becton Dickinson) solution containing 100 mM L-glutamine or skim milk, to which a cryoprotectant according to the present invention was added, was prepared. A human tubal fluid (HTF) medium was used during the IVF process, and a potassium simplex optimized medium (PSOM) was used while 2-cell embryo was cultured to a blastocyst stage.
A sperm cryopreservation solution dispensed in 60 μL was placed in a 35 mm culture dish and covered with paraffin oil. After male mice were sacrificed with […], a tail of epididymis was removed and divided into pieces, and all fats and blood were removed while observing under a microscope before transferring to the cryopreservation solution. The culture dish was kept at 37° C. for 3 minutes and gently stirred every minute to allow sperms to disperse from the tissues. […]
Frozen sperms were thawed under various conditions, then added to IVF drops containing eggs and incubated at 37° C. […] After 24 hours from fertilization, a fertilization rate was calculated using the total number of 2-cell embryos as a percentage based on the total number of eggs.
After performing IFV, 2-cell embryos were classified into a group to be cultured in the blastocyst stage and a group to be implanted in the oviduct of ICR females. After giving birth, the number of pups was recorded. […]

Row | Compound | IRI effect [1] | toxicity to mESC [2] | survival and proliferation of mESC after freezing and thawing [4] | cell viability with respect to mESC [2] | further results
1 | CC(O)C(NC(=O)C(Cc1ccccc1)NC(=O)C(Cc1ccccc1)NC(=O)OCC1c2ccccc2-c2ccccc21)C(N)=O (stereo not drawn) [Fmoc-FFT] (Fmoc-Phe-Phe-Thr-NH2; configuration not given here) | had the IRI effect | no toxicity | survival and proliferation of mESC was smoothly performed | – | relative IRI activity ([1]; comparison between materials, MLGS): highest IRI activity; size of tissue pore ([3]; thawed beef tissue refrozen in liquid nitrogen, cut at -20 °C): 5±2.3 μm; size of recrystallized ice ([3]; versus no Fmoc-FFT added, -20 °C): significantly smaller; also recorded: remarkably smaller
2 | CC(O)C(NC(=O)C(Cc1ccccc1)NC(=O)C(Cc1ccccc1)NC(=O)Cc1ccc2ccccc2c1)C(N)=O (stereo not shown) [Naph-FFT] | had IRI effects | – | – | significant cell viability | –
3 | Bovine serum albumin [BSA, reference compound] | – | – | – | – | aggregation of MPA-AuNP (color change) after freezing/thawing ([5]; MPA-AuNP + 2 μM BSA or PEG): aggregation did not occur
4 | CC(O)C(NC(=O)C(CCC(=O)O)NC(=O)C(Cc1ccccc1)NC(=O)C(CCC(=O)O)NC(=O)C(Cc1ccccc1)NC(=O)OCC1c2ccccc2-c2ccccc21)C(N)=O (stereo not shown) [Fmoc-FEFET] (Fmoc-FEFET-NH2; configuration not given here) | – | no toxicity | survival and proliferation of mESC was smoothly performed | – | CMC ([6]; aqueous solution, compared to Fmoc-FFT): 22.8 µM; solubility ([6]; compared to Fmoc-FFT): improved
5 | C[S+](C)[O-] [DMSO, dimethyl sulfoxide, reference compound] | – | high toxicity | – | – | –
6 | NC(=O)C(CO)NC(=O)C(Cc1ccccc1)NC(=O)C(Cc1ccccc1)NC(=O)OCC1c2ccccc2-c2ccccc21 (stereo not drawn) [Fmoc-FFS] (Fmoc-Phe-Phe-Ser-NH2; configuration not given here) | had the IRI effect | – | – | significant cell viability | –
7 | CC(C)C(NC(=O)C(Cc1ccccc1)NC(=O)C(Cc1ccccc1)NC(=O)OCC1c2ccccc2-c2ccccc21)C(N)=O (stereo not drawn) [Fmoc-FFV] (Fmoc-Phe-Phe-Val-NH2; configuration not given here) | had the IRI effect | – | – | significant cell viability | –
8 | CC(O)C(NC(=O)C(Cc1ccccc1)NC(=O)C(CC1=CN=C2C=CC=CC12)NC(=O)OCC1c2ccccc2-c2ccccc21)C(N)=O (stereo not shown) [Fmoc-WFT] | had IRI effects | – | – | significant cell viability | aggregation of gold particles after freezing/thawing (absorption peak shift 525 nm to 650 nm) [5]: an aggregation phenomenon was exhibited
9 | CC(O)C(NC(=O)C(CC1=c2ccccc2=NC1)NC(=O)C(CC1=CN=C2C=CC=CC12)NC(=O)OCC1c2ccccc2-c2ccccc21)C(N)=O (stereo not shown) [Fmoc-WWT] | had IRI effects | – | – | significant cell viability | rate of 2-cell embryo formation (sperms): ≥ 77%; aggregation of gold particles after freezing/thawing (absorption peak shift 525 nm to 650 nm) [5]: an aggregation phenomenon was exhibited
10 | CC(NC(=O)C(Cc1ccccc1)NC(=O)C(Cc1ccccc1)NC(=O)OCC1c2ccccc2-c2ccccc21)C(N)=O (stereo not drawn) [Fmoc-FFA] (Fmoc-Phe-Phe-Ala-NH2; configuration not given here) | had the IRI effect | no toxicity | survival and proliferation of mESC was smoothly performed | – | –
11 | NC(=O)C(Cc1ccccc1)NC(=O)C(Cc1ccccc1)NC(=O)OCC1c2ccccc2-c2ccccc21 (stereo not drawn) [Fmoc-FF] (Fmoc-Phe-Phe-NH2; configuration not given here) | – | no toxicity | survival and proliferation of mESC was smoothly performed | – | critical micellar concentration (CMC) ([6]; aqueous solution): 17 µM
